# Data reported in patent publication US5935959A, “Piperazine derivatives and use as cysteine inhibitors” (Senju Pharmaceutical Co., Ltd., priority 1995, dated 1999).
# Like-named read-outs stand apart in the source and are kept apart here.
# What was measured:
# Format in all cases: biochemical
# [1] = tested on: trypsin; assay: Assay of Trypsin-Inhibitory Activity (casein degradation); conditions: read-out: Trypsin 50% Inhibitory concentration (IC50); casein substrate, pH 8.0, 60 min, 30° C.
# Protocol: (§1) The activity of papain which is a cysteine protease and of trypsin (Sigma) which is a serine protease was assayed in accordance with the method described in the literature [Anal. Biochem., 208, 387-392, 1993]. Thus, to a solution containing 0.5 mg/ml casein, 50 mM Tris-HCl (pH 8.0), 20 mM dithiothreitol, and 0.2 mM EDTA was added 2.5 μl of dimethyl sulfoxide containing a varying concentration of the test drug as well as 0.03 unit of papain or trypsin to initiate the reaction. The final liquid volume was adjusted to 250 μl. After 60 minutes of reaction at 30° C., 100 μl of the reaction mixture was transferred to another vessel and following addition of 50 μl of purified water and 100 μl of 50% Coumassie brilliant blue solution, the mixture was allowed to stand at room temperature for 15 minutes. The absorbance of the mixture was then measured at 595 nm. Using the value found similarly by adding 2.5 μl of dimethyl sulfoxide not containing the test drug as control and the value found without addition of the enzyme as blank, IC50 was determined in the same manner as above. E64 and leupeptin were used as reference drugs.
# [2] = molecular target: T1, cathepsin L (Homo sapiens, UniProt P07711); assay: Assay of Cathepsin L-Inhibitory Activity (Z-Phe-Arg-MCA); conditions: Z-Phe-Arg-MCA 20 μM, pH 5.5, 20 min, 30° C.
# T1 construct: purchased Cosmo Bio
# T1 sequence (P07711 114-333, species assumed): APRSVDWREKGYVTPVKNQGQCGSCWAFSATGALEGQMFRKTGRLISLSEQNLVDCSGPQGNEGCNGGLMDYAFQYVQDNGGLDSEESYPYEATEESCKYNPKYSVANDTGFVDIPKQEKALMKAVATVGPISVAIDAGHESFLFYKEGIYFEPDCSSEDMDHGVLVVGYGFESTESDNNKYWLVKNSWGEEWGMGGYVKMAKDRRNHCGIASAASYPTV
# Protocol: The activity of cathepsinL (Cosmo Bio), a cysteine protease, was assayed by the method described in the literature [Methods in Enzymology, 80, 535-561, 1981]. Thus, to a solution containing 85 mM acetate buffer (pH 5.5), 2 mM dithiothreitol, 1 mM EDTA, 2 μg cathepsin L, and a varying concentration of the test compound was added 20 μM carbobenzoxy-L-phenylalanyl-L-arginine-4-methyl-coumaryl-7-amide (Z-Phe-Arg-MCA) to initiate the reaction at the final liquid volume of 200 μl. After 20 minutes of reaction at 30° C., 20 μl of 1M Tris-HCl (pH 8.0) was added so as to stop the reaction. The amount of liberated 4-methyl-7-aminocoumarin was determined with a fluorospectrometer at an excitation wavelength of 360 nm and a fluorescent emission wavelength of 450 nm. Using the value found without addition of the test drug as control and the value found without addition of the enzyme as blank, IC50 was determined in the same manner as above. E64 was used as a reference drug.
# [3] = molecular target: T2, μ-calpain (Homo sapiens, UniProt P07384); assay: Assay of μ-Calpain-Inhibitory Activity (casein degradation); conditions: casein substrate, pH 7.4, 60 min, 30° C.
# T2 construct: purchased Nakarai Tesque
# T2 sequence (P07384 1-714): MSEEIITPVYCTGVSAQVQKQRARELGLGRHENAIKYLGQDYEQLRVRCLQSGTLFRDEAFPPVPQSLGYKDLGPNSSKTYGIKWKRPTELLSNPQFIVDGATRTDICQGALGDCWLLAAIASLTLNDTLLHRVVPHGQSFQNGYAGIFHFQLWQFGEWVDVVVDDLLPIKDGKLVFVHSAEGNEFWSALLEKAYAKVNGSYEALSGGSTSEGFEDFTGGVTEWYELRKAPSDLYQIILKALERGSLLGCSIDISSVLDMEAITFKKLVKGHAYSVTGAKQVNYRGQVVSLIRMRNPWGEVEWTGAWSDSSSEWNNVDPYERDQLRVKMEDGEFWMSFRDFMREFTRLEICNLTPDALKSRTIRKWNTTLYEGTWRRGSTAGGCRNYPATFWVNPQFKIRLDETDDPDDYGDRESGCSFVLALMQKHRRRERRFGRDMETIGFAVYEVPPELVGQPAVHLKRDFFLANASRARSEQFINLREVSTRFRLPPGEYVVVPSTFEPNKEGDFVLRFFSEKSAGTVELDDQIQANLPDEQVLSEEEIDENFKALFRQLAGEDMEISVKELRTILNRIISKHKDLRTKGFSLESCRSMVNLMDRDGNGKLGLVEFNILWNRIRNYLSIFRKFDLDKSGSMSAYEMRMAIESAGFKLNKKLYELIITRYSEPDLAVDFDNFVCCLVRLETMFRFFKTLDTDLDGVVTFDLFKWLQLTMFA
# T2 sequence (P04632 1-268 partner): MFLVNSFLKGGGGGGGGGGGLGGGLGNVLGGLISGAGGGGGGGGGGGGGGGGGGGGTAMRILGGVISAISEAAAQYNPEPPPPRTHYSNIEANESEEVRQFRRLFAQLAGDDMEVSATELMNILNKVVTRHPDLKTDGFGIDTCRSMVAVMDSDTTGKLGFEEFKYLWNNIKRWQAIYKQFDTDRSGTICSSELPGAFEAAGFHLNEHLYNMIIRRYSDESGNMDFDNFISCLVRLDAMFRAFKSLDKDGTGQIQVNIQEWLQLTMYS
# Protocol: The activity of μ-calpain (Nakarai Tesque) was assayed in accordance with the procedure described in the literature [Anal. Biochem., 208, 387-392 (1993)]. Thus, to a solution containing 0.5 mg/ml casein, 50 mM Tris-HCl (pH 7.4), 20 mM dithiothreitol, and 4 mM calcium chloride was added 2.5 μl of a dimethyl sulfoxide solution containing a varying concentration of the test drug as well as 0.03 unit of μ-calpain to initiate the reaction. The final liquid volume was 250 μl. After 60 minutes of reaction at 30° C., 100 μl of the reaction mixture was transferred to another vessel, to which 50 μl of purified water and 100 μl of 50% Coumassie brilliant blue solution were added. The mixture was allowed to stand at room temperature for 15 minutes and the absorbance was measured at 595 nm. As a control, 2.5 μl of dimethyl sulfoxide not containing the test drug was added and the mixture was treated in the same manner as above. The absorbance value thus found was used as the control value. Similarly, the value found by adding 0.2 mM EDTA in lieu of 4 mM aqueous calcium chloride solution was used as the blank value. […] E64 which is a known cysteine protease inhibition compound was used as a reference drug. [formula]
# [4] = molecular target: T3, papain (Carica papaya, UniProt P00784); assay: Assay of Papain-Inhibitory Activity (casein degradation); conditions: casein substrate, pH 8.0, 60 min, 30° C.
# T3 construct: purchased Sigma
# T3 sequence (P00784 134-345): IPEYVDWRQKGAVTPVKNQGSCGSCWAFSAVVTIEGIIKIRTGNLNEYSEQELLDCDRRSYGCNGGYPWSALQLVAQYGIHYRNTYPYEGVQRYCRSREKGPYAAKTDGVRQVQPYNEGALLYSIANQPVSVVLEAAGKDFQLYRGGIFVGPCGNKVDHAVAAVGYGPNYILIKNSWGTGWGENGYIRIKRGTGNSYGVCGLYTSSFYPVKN
# Protocol: as §1
SMILES,IC50 [1] [µM],IC50 [3] [µM],also measured
"CC(C)C[C@H](NC(=O)[C@H]1O[C@@H]1C(=O)O)C(=O)N1CCN(c2ccc(F)cc2)CC1 [Example 23, (2s,3s)-3-[[[[(1s)-1-[[4-(4-fluorophenyl)-1-piperazinyl]carbonyl]-3-methyl]butyl]amino]carbonyl]oxiranecarboxylic acid]",> 3000,,
"CC(=O)N[C@@H](CC(C)C)C(=O)N[C@@H](CC(C)C)C(=O)N[C@H](C=O)CCCNC(=N)N [Leupeptin, reference compound]",7.4,,
"Cc1ccc(S(=O)(=O)N2CCN(C(=O)[C@H](CC(C)C)NC(=O)[C@H]3O[C@@H]3C(=O)O)CC2)cc1 [Example 26, (2s,3s)-3-[[[[(1s)-1-[[4-(4-methylphenylsulfonyl)-1-piperazinyl]carbonyl]-3-methyl]butyl]amino]carbonyl]oxiranecarboxylic acid]",> 3000,,
"O=C(O)[C@H]1O[C@@H]1C(=O)N[C@@H](Cc1ccccc1)C(=O)N1CCN(c2ccc(F)cc2)CC1 [Example 21, (2s,3s)-3-[[[[(1s)-1-[[4-(4-fluorophenyl)-1-piperazinyl]carbonyl]-2-phenyl]ethyl]amino]carbonyl]oxiranecarboxylic acid]",> 3000,,

# Now from value to compound, other results behind:
IC50 [1] [µM],IC50 [3] [µM],SMILES,also measured
> 3000,17.5,"O=C(O)[C@H]1O[C@@H]1C(=O)NCC(=O)N1CCN(c2ccccc2Cl)CC1 [Example 32, (2s,3s)-3-[[[[[4-(2-chlorophenyl)-1-piperazinyl]carbonyl]methyl]amino]carbonyl]oxiranecarboxylic acid]",IC50 ([2]; read-out: Cathepsin L 50% Inhibitory concentration (IC50)): 37.6 µM
> 300,0.66,"CC(C)C[C@H](NC(=O)[C@H]1O[C@@H]1C(=O)O)C(=O)NCCCCNC(=N)N [Example E-64, reference compound]",IC50 [4]: 0.032 µM; IC50 [2]: 0.015 µM
,145,"O=C(O)[C@H]1O[C@@H]1C(=O)NC1(C(=O)N2CCN(c3ccc(F)cc3)CC2)CCCC1 [Example 41, (2s,3s)-3-[[[(1s)-1-[[4-(4-fluorophenyl)-1-piperazinyl]carbonyl]-1-cyclopentyl]amino]carbonyl]oxiranecarboxylic acid]",
> 3000,,"CC(C)C[C@H](NC(=O)[C@H]1O[C@@H]1C(=O)O)C(=O)N1CCN(c2ccccc2Cl)CC1 [Example 27, (2s,3s)-3-[[[[(1s)-1-[[4-(2-chlorophenyl)-1-piperazinyl]carbonyl]3-methyl]butyl]amino]carbonyl]oxiranecarboxylic acid]",
> 3000,,"CC[C@H](C)[C@H](NC(=O)[C@H]1O[C@@H]1C(=O)O)C(=O)N1CCN(c2ccccc2Cl)CC1 [Example 34, (2s,3s)-3-[[[[(1s)-1-[[4-(2-chlorophenyl)-1-piperazinyl]carbonyl]-2-methyl]butyl]amino]carbonyl]oxiranecarboxylic acid]",IC50 [2]: 0.009 µM
,3.9,"CC(=O)NCSC[C@H](NC(=O)[C@H]1O[C@@H]1C(=O)O)C(=O)N1CCN(c2ccccc2Cl)CC1 [Example 38, (2s,3s)-3-[[[[(1s)-1-[[4-(2-chlorophenyl)-1-piperazinyl]carbonyl]-2-acetylaminomethylthio]ethyl]amino]carbonyl]oxiranecarboxylic acid]",
